Data set [1] in a line: log P by HPLC on reversed-phase column (EEC Directive 79/831 Annex V.A8). Type of data set: physicochemical. How it is done: The log p values reported in the above tables and preparation examples are determined in accordance with EEC Directive 79/831 Annex V.A8 by means of HPLC (high performance liquid chromatography) on a reversed-phase column (C 18). Temperature: 43° C.
Determination is carried out in the acidic range at a pH of 2.3 using 0.1% aqueous phosphoric acid and acetonitrile as mobile phases; linear gradient from 10% acetonitrile to 90% acetonitrile. The values are marked in the tables with ^a).
Determination takes place in the neutral range at a pH of 7.5 with 0.01-molar aqueous phosphate buffer solution and acetonitrile as mobile phases; linear gradient from 10% acetonitrile to 90% acetonitrile. The values are marked in the tables with ^b).
The calibration is carried out using unbranched alkan-2-ones (having from 3 to 16 carbon atoms) whose logP values are known (logP values determined on the basis of the retention times, using linear interpolation between two successive alkanones).

In data set [2] the test system is larvae of the mustard beetle (Phaedon cochleariae). Briefly: Phaedon larvae test (cabbage leaves dipped). The following applies: 168 h, kill, 7 d, read-out: Efficacy in % after 7 d; for pest or weed control at 100 ppm: 100 ppm active compound. In kind it is in vivo. How it is done:
(§1) [table] To produce a suitable preparation of active compound, 1 part by weight of active compound is mixed with the stated amounts of solvent and emulsifier, and the concentrate is diluted with emulsifier-containing water to the desired concentration. Cabbage leaves (Brassica oleracea) are treated by being dipped into the preparation of active compound of the desired concentration and are populated with larvae of the mustard beetle (Phaedon cochleariae) whilst the leaves are still moist. After the desired period of time, the kill in % is determined. 100% means that all beetle larvae have been killed; 0% means that none of the beetle larvae has been killed.

The subject of a further data set is Lucilia cuprina larvae. Briefly: Blowfly larvae test/development-inhibiting effect. Type of data set: in vivo. The following applies: for mortality at 100 ppm: 100 ppm active compound; for mortality at 20 ppm: 20 ppm active compound. How it is done:
20 mg of active compound are dissolved in 1 ml of dimethyl sulphoxide; lower concentrations are prepared by dilution with distilled water.
About 20 Lucilia cuprina larvae are introduced into a test tube containing about 1 cm^3 of horse meat and 0.5 ml of the test preparation of active compound. After 24 and 48 hours, the activity of the preparation is determined. The test tubes are transferred to beakers with their bases covered with sand. After a further 14 days, the test tubes are removed and the pupae/flies are counted.
The effect of the preparation is assessed according to the number of flies which have hatched after 1.5 times the development period of an untreated control. 100% means that no flies have hatched; 0% means that all of the flies have hatched normally.

For data set [3], the system named is army worm (Spodoptera exigua) caterpillars. Briefly: Spodoptera exigua test (cabbage leaves dipped). The following applies: kill. Type of data set: in vivo. How it is done:
as §1, with “army worm (Spodoptera exigua) caterpillars” for “larvae of the mustard beetle (Phaedon cochleariae)”, “caterpillars” for “beetle larvae”

In data set [4] the test system is caterpillars of the cotton bollworm (Heliothis armigera). Briefly: Heliothis armigera test (soya bean shoots dipped). Type of data set: in vivo. The following applies: kill, 20 ppm active compound. How it is done: as §1, with “concentration. Soya bean shoots (Glycine max)” for “concentration. Cabbage leaves (Brassica oleracea)”, “with caterpillars” for “with larvae”, “the cotton bollworm (Heliothis armigera)” for “the mustard beetle (Phaedon cochleariae)”, “all […]” for “all beetle larvae”, “the caterpillars” for “the beetle larvae”

For data set [5], the system named is army worm (Spodoptera frugiperda) caterpillars. The data set can be described thus: Spodoptera frugiperda test (cabbage leaves dipped). In kind it is in vivo. The following applies: 168 h, kill, 100 ppm active compound, 7 d, read-out: Efficacy in % after 7 d. How it is done: as §1, with “army worm (Spodoptera frugiperda) caterpillars” for “larvae of the mustard beetle (Phaedon cochleariae)”, “caterpillars” for “beetle larvae”

Data set [6] deals with cabbage moth (Plutella xylostella) caterpillars. The data set can be described thus: Plutella test (cabbage leaves dipped). In kind it is in vivo. The note with it: kill. How it is done: as §1, with “cabbage moth (Plutella xylostella) caterpillars” for “larvae of the mustard beetle (Phaedon cochleariae)”, “caterpillars” for “beetle larvae”
In data set [7] the test system is Heliothis virescens caterpillars. The data set can be described thus: Heliothis virescens test (soya bean shoots dipped). In kind it is in vivo. The following applies: kill, 100 ppm active compound. How it is done:
as §1, with “Soya bean shoots (Glycine max)” for “Cabbage leaves (Brassica oleracea)”, “Heliothis virescens caterpillars” for “larvae of the mustard beetle (Phaedon cochleariae)”, “caterpillars” for “beetle larvae”

In data set [8] the test system is greenhouse red spider mite (Tetranychus urticae). The data set can be described thus: Tetranychus test (OP resistant/dip treatment). Type of data set: in vivo. The following applies: kill of spider mites, 100 ppm active compound. How it is done:
[table] To produce a suitable preparation of active compound, 1 part by weight of active compound is mixed with the stated amounts of solvent and emulsifier, and the concentrate is diluted with emulsifier-containing water to the desired concentration. Bean plants (Phaseolus vulgaris) which are heavily infested by all stages of the greenhouse red spider mite (Tetranychus urticae) are dipped into a preparation of active compound of the desired concentration. After the desired period of time, the effect in % is determined. 100% means that all spider mites have been killed; 0% means that none of the spider mites has been killed.

The subject of data set [9] is fruit tree red spider mite (Panonychus ulmi). Briefly: Panonychus test (plum trees dipped). The following applies: kill of spider mites, 100 ppm active compound. In kind it is in vivo. How it is done: To produce a suitable preparation of active compound, 1 part by weight of active compound is mixed with the stated amounts of solvent and emulsifier, and the concentrate is diluted with emulsifier-containing water to the desired concentration.
Plum trees (Prunus domestica) about 30 cm high which are heavily infested by all stages of the fruit tree red spider mite (Panonychus ulmi) are dipped into a preparation of active compound of the desired concentration.
After the desired period of time, the effect in % is determined. 100% means that all spider mites have been killed; 0% means that none of the spider mites has been killed.

For data set [10], the system named is cotton aphid (Aphis gossypii). Briefly: Aphis gossypii test (cotton leaves dipped). The following applies: kill, 100 ppm active compound. In kind it is in vivo. How it is done:
[table] To produce a suitable preparation of active compound, 1 part by weight of active compound is mixed with the stated amounts of solvent and emulsifier, and the concentrate is diluted with emulsifier-containing water to the desired concentration. Cotton leaves (Gossypium hirsutum) heavily infested by the cotton aphid (Aphis gossypii) are treated by being dipped into the preparation of active compound of the desired concentration. After the desired period of time, the kill in % is determined. 100% means that all […] have been killed; 0% means that none of the aphids has been killed.

Where [11] appears, read: reversed-phase HPLC column (C18); HPLC, acidic range pH 2.3, marked a).
Setting [12] is: reversed-phase HPLC column (C18); HPLC, neutral range pH 7.5, marked b).
Where [13] appears, read: 336 h, 14 d, inhibition of fly hatching, read-out: % Activity/kill (14 d).

Molecules are shown by their SMILES. Like-named read-outs stand apart in the source and are kept apart here.

Usually chromatographic logP stands for lipophilicity estimated from chromatographic retention. A higher chromatographic logP goes with higher lipophilicity. With `Fc1cccc(F)c1C1=NC(c2ccc(-c3ccc(OCC4CC4)nc3)cc2)CC1` (stereo not drawn) [compound 25], the figures for the chromatographic logP in [1] (setting [11]) and in data set [1] (setting [12]) were 3.48 and 4.67, respectively. The pest or weed control at 100 ppm in data set [2] and in [5] was 100% in each case. In addition, in the data set on Lucilia cuprina larvae (48 h, read-out: % Activity/kill (48 h)), the mortality at 100 ppm was determined as 100%. Moreover, in the data set on Lucilia cuprina larvae (setting [13]), the mortality at 20 ppm turned out to be 100%. Further, the “Efficacy in % after 7 d” value in [3] (20 ppm active compound), in [4] and in data set [6] (20 ppm active compound) was 100% each time.

For `CC(C)Sc1ccc(-c2ccc(C3CCC(c4c(F)cccc4F)=N3)cc2)cn1` (stereo not drawn) [compound 8], the chromatographic logP amounted to 3.8 in data set [1] (setting [11]) and 4.96 in data set [1] (setting [12]). In addition, the pest or weed control at 100 ppm in data set [2] and in data set [5] was 100% in each case. Moreover, the “Efficacy in % after 7 d” value in [3] (100 ppm active compound) is listed as 100%; in data set [7] it was 100%; in [8] it was 98%; in data set [6] (100 ppm active compound) it was 100%.

`CCSc1ccc(-c2ccc(C3CCC(c4c(F)cccc4F)=N3)cc2)cn1` (stereo not drawn) [compound 4]: the chromatographic logP in data set [1] (setting [11]) amounted to 3.29; in data set [1] (setting [12]), 4.54. Also, the pest or weed control at 100 ppm in data set [2] and in [5] was 100% each time. Moreover, the mortality at 100 ppm with Lucilia cuprina larvae (setting [13]) stood at 100%. Besides, the “Efficacy in % after 7 d” value is 100% in [3] (100 ppm active compound), 100% in data set [7], 95% in data set [8] and 100% in [6] (100 ppm active compound).

Turning to `Fc1cccc(F)c1C1=NC(c2ccc(-c3ccc(OC4CCC4)nc3)cc2)CC1` (stereo not drawn) [compound 19], the figures for the chromatographic logP in data set [1] (setting [11]) and in [1] (setting [12]) were 3.66 and 4.9, respectively. In addition, in data set [2] (20 ppm active compound), the pest or weed control at 20 ppm stood at 100%. Further, the mortality at 20 ppm with Lucilia cuprina larvae (setting [13]) stood at 100%. Further, the mortality at 100 ppm in the data set with Lucilia cuprina larvae (setting [13]) is 100%. Moreover, in data set [5], the pest or weed control at 100 ppm stood at 100%. Also, the “Efficacy in % after 7 d” value in [8] was 95%.

`CC(C)Oc1ccc(-c2ccc(C3CCC(c4c(F)cccc4F)=N3)cc2)cn1` (stereo not drawn) [compound 7]: the chromatographic logP in [1] (setting [11]) is 3.42; in data set [1] (setting [12]) it was 4.73. Besides, the pest or weed control at 100 ppm in [2] and in data set [5] was 100% each time. The “Efficacy in % after 7 d” value in data set [9], in [3] (100 ppm active compound), in data set [7] and in [6] (100 ppm active compound) was 100% each time. In addition, the “Efficacy in % after 6 d” value in [10] was 99%.

As for `CCCOc1ccc(-c2ccc(C3CCC(c4c(F)cccc4F)=N3)cc2)cn1` (stereo not drawn) [compound 5], the chromatographic logP in data set [1] (setting [11]) was found to be 3.42; in data set [1] (setting [12]), 4.77. Further, the pest or weed control at 100 ppm in data set [2] and in data set [5] was 100% each time. Moreover, the “Efficacy in % after 7 d” value in data set [3] (100 ppm active compound) is 100%; in [7], 100%; in data set [8], 98%; in [6] (100 ppm active compound), 100%. Moreover, the “Efficacy in % after 6 d” value in data set [10] is given as 99%.

Turning to `Fc1cccc(F)c1C1=NC(c2ccc(-c3ccc(OC4CCCC4)nc3)cc2)CC1` (stereo not drawn) [compound 21], the chromatographic logP in data set [1] (setting [11]) is 3.99; in [1] (setting [12]) it was 5.34. In addition, the pest or weed control at 100 ppm in data set [2] and in data set [5] was 100% throughout. The “Efficacy in % after 7 d” value in data set [8] turned out to be 95%.

For the molecule `CCOc1ccc(Br)cn1` [III-1, 5-bromo-2-ethoxypyridine], the chromatographic logP in data set [1] (setting [11]) amounted to 2.92.

The molecule `CCOc1ccc(-c2ccc(C3CCC(c4c(F)cccc4F)=N3)cc2)cn1` (stereo not drawn) [No. 1, 5-{4-[5-(2,6-difluorophenyl)-3,4-dihydro-2H-pyrrol-2-yl]phenyl}-2-ethoxypyridine] showed a chromatographic logP in data set [1] (setting [11]) of 2.92. Also, the pest or weed control at 100 ppm in [2] and in [5] was 100% in each case.

(Values after patent US7115603B2, “A1-pyrrolines” (priority 2001, dated 2006).)
